A short description of assay [1]: Hydroxyl radical averting capacity (HORAC). To be noted: gallic acid equivalents; sample final concentration 2.5 μM; Co(II)/H2O2, fluorescein; mean. The protocol: HORAC values of various phenolic compounds are related to their metal chelating properties and molecules that can chelate metals show significant HORAC values. According to the HORAC assays, the antioxidant capacity ranged between 0.50 and 3.03 GAE. […] To our knowledge, the current study is the first one to report ORAC and HORAC activities of 1H-benzimidazole-2-yl hydrazones.
HORAC was performed according to Ou et al. and fluorescein was used as the fluorescent probe. Hydrogen peroxide solution of 0.55 M was prepared in distilled water. 4.6 mM Co(II) was prepared as follows: 15.7 mg of CoF2.4H2O and 20 mg of picolinic acid were dissolved in 20 mL of distilled water. Fluorescein—170 µL (60 nM, final concentration) and 10 µL of sample were incubated at 37 °C for 10 min directly in the FLUOstar plate reader. […] The initial fluorescence was measured after which the readings were taken every minute after shaking. […] The AUC were calculated as they were for the ORAC assay. One HORAC unit was assigned to the net protection area provided by 1 µM gallic acid (final concentration −0.05 μM) and the activity of the sample was expressed as Gallic Acid Equivalents (GAE).
ORAC and HORAC analyses were carried out on a FLUOstar Galaxy plate reader (BMG Labtechnology, Offenburg, Germany) with excitation wavelength = 485 nm and emission wavelength = 520 nm.

The target of the next assay is T1, porcine brain tubulin (Sus scrofa, UniProt P02550+P02554).
T1 construct: The standard reaction mixture contains 95 μL of 4 mg.mL^−1 porcine brain tubulin; purchased Cytoskeleton, USA BK004P; host or cells: porcine brain (tissue-purified)
T1 sequence (P02550 whole entry): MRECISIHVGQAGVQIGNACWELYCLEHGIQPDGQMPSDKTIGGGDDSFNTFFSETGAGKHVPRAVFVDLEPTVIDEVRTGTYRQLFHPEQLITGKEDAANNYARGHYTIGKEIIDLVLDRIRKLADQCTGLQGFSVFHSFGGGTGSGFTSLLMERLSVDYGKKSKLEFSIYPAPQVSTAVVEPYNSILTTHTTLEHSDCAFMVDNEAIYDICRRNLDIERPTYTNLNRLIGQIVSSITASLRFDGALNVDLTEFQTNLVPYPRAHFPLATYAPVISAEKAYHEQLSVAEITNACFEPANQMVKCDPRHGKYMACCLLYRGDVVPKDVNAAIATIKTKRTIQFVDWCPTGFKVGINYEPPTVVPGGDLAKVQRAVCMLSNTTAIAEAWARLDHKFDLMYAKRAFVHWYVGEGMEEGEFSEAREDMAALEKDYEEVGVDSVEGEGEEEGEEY
T1 sequence (P02554 whole entry): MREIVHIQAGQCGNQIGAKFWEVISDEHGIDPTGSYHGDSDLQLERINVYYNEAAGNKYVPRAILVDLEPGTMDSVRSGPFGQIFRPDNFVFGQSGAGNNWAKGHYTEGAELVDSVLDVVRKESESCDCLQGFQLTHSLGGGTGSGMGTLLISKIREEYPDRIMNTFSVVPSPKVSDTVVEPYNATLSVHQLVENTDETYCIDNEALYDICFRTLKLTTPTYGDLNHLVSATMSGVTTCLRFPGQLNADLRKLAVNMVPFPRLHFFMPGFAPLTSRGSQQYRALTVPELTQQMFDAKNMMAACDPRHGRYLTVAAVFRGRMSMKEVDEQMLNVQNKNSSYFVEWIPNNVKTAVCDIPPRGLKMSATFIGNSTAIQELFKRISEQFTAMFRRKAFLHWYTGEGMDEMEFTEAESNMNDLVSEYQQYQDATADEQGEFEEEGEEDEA
The assay is described as follows: In vitro tubulin polymerization assay (turbidity at 340 nm). The class given is biochemical. Conditions: 10 µM compound; 37 °C, 90 min, turbidity 340 nm. The protocol:
The ability of the compounds to modulate the polymerization of tubulin was evaluated in vitro on purified porcine tubulin by spectrophotometric monitoring at 340 nm and compared to those of nocodazole and paclitaxel as reference compounds. Nocodazole which inhibits the assembly of tubulin was used as a positive control, and paclitaxel which is a stabilizing agent of tubulin polymerization was used as a negative control. Tubulin polymerization was determined with 10 µM of the reference drugs and compounds 1a–l for 90 min.
Figure 3 Porcine brain tubulin (final […]) in presence of PB-GTP buffer, 10 µM paclitaxel, 10 µM nocodazole and 10 µM of the assayed compounds. Reaction was conducted in thermostated spectrophotometric chamber at 37 °C for 90 min. Turbidity was measured at 340 nm every 30 s.
The effect of the studied compounds on the polymerization of purified porcine tubulin was monitored using a commercial assay kit (cat. number BK004P), purchased from Cytoskeleton, USA. Stock solutions of porcine brain tubulin solutions (4 mg.mL^−1) were prepared immediately prior to use in general tubulin buffer (80 mM piperazine-N,N′-bis(2-ethanesulfonic acid, PIPES) pH 6.9, 2 mM MgCl2 and 0.5 mM (ethylene glycol-bis(β-aminoethyl ether)-N,N,N′,N′-tetraacetic acid, EGTA) containing 1 mM guanosine triphosphate (GTP) (G-PEM buffer). Stock solutions of Paclitaxel (100 µM), Noconazole (100 µM) or tested samples (100 µM) in G-PEM buffer containing 5% DMSO were prepared.
The standard reaction mixture contains 95 μL of 4 mg.mL^−1 porcine brain tubulin and 5 μL of standards, test samples or G-PEM buffer only (control). Then, the microplate with loaded reaction mixtures was incubated for 90 min. at 37 °C in a thermostated spectrophotometer chamber. The turbidity of the mixtures was measured at 340 nm every 30 s. The experiment was performed on SpectroStar Nano (BMG Labtech, Aylesbury, UK) equipped with software for kinetic measurements.

In the case of `Oc1ccc(/C=N/Nc2nc3ccccc3[nH]2)c(O)c1O` [Compound 1e], in assay [1], the HORAC amounted to 2.79 GAE.

With `Oc1ccc(/C=N/Nc2nc3ccccc3[nH]2)c(O)c1` [Compound 1c], the HORAC in assay [1] is 2.69 GAE. Besides, on porcine brain tubulin, the “Initial Rate of the Exponential Phase, Signal Response” value is on record as 4.9 a.u.s^−1 × 10^−6 and the “Lag Time” value was 1190 s.
